Test [1] is described as follows: Free radical scavenging activity (DPPH, Blois method). The note with it: n = 3, read-out: Radical Scavenging Activity (EC50, Mean ± SD). The protocol:
The activity was tested using the spectrophotometric Blois method.
Radical scavenging activity (DPPH Method)
The stable 1, 1-diphenyl-2-picryl hydrazyl radical (DPPH) was used for determination of free radical-scavenging activity of the test compounds. The 0.1 mM solution of DPPH in methanol (39.4 mg in 1000 ml) was freshly prepared. Different concentrations of test compounds were added with an equal volume to methanol solution of DPPH. After 30 min at room temperature, the absorbance was recorded at 517 nm. Ascorbic acid was used as standard. IC50 values denote the concentration of sample, which is required to scavenge 50% of DPPH free radicals. IC50 value was determined from the plotted graph of scavenging activity against the different concentrations of test compounds. Ascorbic acid was applied as positive drug (Blois, 1958).

The target in test [2] is T1, brain AChE (rat cortex homogenate) (Rattus norvegicus, UniProt P37136).
T1 construct: homogenate was used as the resource of AChE; from tissue; host or cells: rat cortex homogenate
T1 sequence (P37136 32-614): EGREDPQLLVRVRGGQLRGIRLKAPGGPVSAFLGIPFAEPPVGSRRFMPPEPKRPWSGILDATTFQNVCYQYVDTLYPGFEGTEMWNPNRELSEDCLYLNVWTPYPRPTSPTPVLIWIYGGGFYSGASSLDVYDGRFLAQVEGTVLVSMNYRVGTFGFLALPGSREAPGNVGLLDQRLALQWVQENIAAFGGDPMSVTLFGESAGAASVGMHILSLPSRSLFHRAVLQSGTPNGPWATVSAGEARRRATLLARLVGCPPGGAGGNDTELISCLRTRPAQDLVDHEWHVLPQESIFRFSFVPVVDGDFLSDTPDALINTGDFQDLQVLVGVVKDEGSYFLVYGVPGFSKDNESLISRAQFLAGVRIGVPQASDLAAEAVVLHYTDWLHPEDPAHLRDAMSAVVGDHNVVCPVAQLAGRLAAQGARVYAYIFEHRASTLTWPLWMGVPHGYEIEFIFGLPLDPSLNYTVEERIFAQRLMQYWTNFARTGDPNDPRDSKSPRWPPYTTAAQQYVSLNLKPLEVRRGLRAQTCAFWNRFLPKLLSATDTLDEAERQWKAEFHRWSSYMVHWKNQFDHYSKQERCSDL
The test is described as follows: biochemical. The protocol: The ability of target compounds PS(1–10) to inhibit AChE was evaluated by the slightly modified Ellman’s method. The objective of attaching different amines to the 1,3-diphenylprop-2-enone skeleton via an ethoxy spacer was to enhance the interaction of the designed synthesized chalcones with both the PAS and CAS of AChE.
The inhibitory potential of synthesized compounds was evaluated for brain AChE by the widely used Ellman et al. process. The method involved using spectroscopic investigation at 450 nm. All the compounds with different concentrations were evaluated in triplicate including donepezil (standard AChE inhibitor).
In vitro inhibition of AChE
The inhibitory potency of target compounds on AChE was determined using spectroscopic […]
homogenate was used as the resource of AChE. For assay of AChE activity, a reaction mixture containing 100μl acetylthiocholine iodide 0.075M/L, 100μl sodium phosphate buffer (0.1M/L, pH 7.4), 20μl homogenate or serum and different concentrations of test compounds 20μl was incubated at 37° C for 15 min. The reaction was terminated by adding 50μl 3% sodium lauryl sulfate, then, 50μl, 0.2% of 5,5’–dithio-bis- (2-nitrobenzoic acid) (DTNB, 10 mg DTNB in 100 mL of Sorenson phosphate buffer, pH 8.0) was added to produce the yellow anion of 5-thio-2-nitro-benzoic acid. Assays were carried out with a blank containing all components except AChE in order to account for non-enzymatic reaction. The values of IC 50 were calculated by UV spectroscopy from the absorbance changes at 450 nm. A positive control of donepezil was used in the same range of concentrations. Each concentration was analyzed in triplicate. Data from concentration–inhibition experiments of the inhibitors were calculated by nonlinear regression analysis, using the GraphPad Prism 5 program. […]

Another test has as its system AGE formation. The test is described as follows: AGE formation inhibitory activity (glucose-mediated protein glycation of BSA, spectrofluorometric). It is filed as biochemical. To be noted: n = 3, 60°C, 24 h, read-out: AGE Inhibitory Activity (IC50, Mean ± SD). The protocol:
The compound PS10 with 4-methylpiperazine had better anti-glycating effects compared to the unsubstituted piperazine compound (PS6). […]
The synthesized compounds were assayed by the spectrofluorometric method for inhibition of glucose-mediated protein glycation. All the compounds and aminoguanidine (positive control) with different concentrations were evaluated in triplicate. […]
In vitro advanced glycation end-product (AGEs) formation inhibitory activity The assay for the ability of the synthesized compounds to inhibit the glucose-mediated protein glycation and the development of ﬂuorescent AGEs was performed. Different concentrations of various compounds were prepared by dissolving in DMSO. Anti-glycation assay was performed according to the methods reported by Matsuura and colleagues with slight modification. In all experiments, about 500 µl of Bovine serum albumin (1mg/ml final concentration) was incubated with 400 µl of glucose (500 mM) in the presence of 100 µl of test compounds, aminoguanidine or PBS as control buffer at different concentrations, The reaction was allowed to proceed at 60°C for 24hrs and thereafter reaction was stopped by adding 10 µl of 100% (w/v) trichloroacetic acid (TCA). Then the mixture was kept at 4°C for 10 min before subjected to centrifugation at 15,000 rpm. The precipitate was redissolved in 1ml alkaline PBS (pH10) and immediately quantified for relative amount of glycated BSA based on fluorescence intensity by spectrofluorometer LS-55 (Perkin Elmer) at 370 nm (excitation) and 440 nm (emission). Aminoguanidine was used as a positive control. Percentage inhibition was calculated. All experiments were performed in triplicate.

Test [3] deals with STZ-induced cognitive impairment in rats. Nature of the test: Morris Water Maze in STZ-induced dementia. It is filed as in vivo, Wistar rats. The note with it: STZ i.c.v. 3 mg/kg rats; PS10 2, 5, 10 mg/kg p.o., day 9 to 22. The protocol: The STZ model (i.c.v., 3 mg/kg) is commonly used to study AD in animals. The intracerebroventricular injection of STZ, at two sub-diabetogenic doses, induces a range of symptoms including impaired cognition, metabolic and molecular changes, and neuropathological symptoms in rodents which are often found in AD subjects. […] The ROS produced can cause damage to the myelin sheath and acetyl coenzyme-A in the hippocampus. As a result, there is an increase in AChE activity, leading to behavioral disturbances, as in Alzheimer’s disease. Thus, this model is frequently used for AD interventions.
MWM is the most commonly used method to measure learning and spatial memory in rats. MWM utilizes the natural swimming ability of rats. As a result, during the retrieval phase, there is no induced stress that could affect the results. The MWM model is commonly used to test drugs that enhance memory and provide neuroprotection. Thus, it has been used to understand the effect of PS10 on the memory of animals with induced cognitive impairment by means of restoring the ELT.
To induce cognitive impairment in rats, solutions of Streptozotocin (STZ, 3 mg/kg) in artificial cerebro-spinal fluid (ACSF) were given as i.c.v. (intracerebroventricular) injections. The STZ injections were administered bilaterally on days 1 and 3 of the experimental protocol. […]

A further test addresses T2, brain AChE (Rattus norvegicus, UniProt P37136).
T2 construct: from tissue; host or cells: brain homogenate of STZ-treated Wistar rats
T2 sequence (P37136 32-614): T1 sequence (P37136 32-614)
Nature of the test: Brain AChE activity in STZ-treated rats (brain homogenate). It is filed as in vivo. The note with it: STZ i.c.v. rats; PS10 2, 5, 10 mg/kg p.o. The text has this:
The central cholinergic system is critical for cognitive function, and AD patients often suffer from cholinergic hypofunction due to increased AChE activity and the degeneration of cholinergic neurons. Animal studies have shown that the administration of STZ (i.c.v) increases brain AChE activity, which leads to cognitive impairment and memory deficits. […]. Possibly, due to these interactions between PS10 and amino acids of AChE, PS10 was able to inhibit AChE activity.
(§1) Groups IV, V, and VI (STZ + PS10): Following intracerebroventricular injections of STZ, animal groups were administered different doses of PS10 (2, 5, and 10 mg/kg, p.o., respectively), from 9 to 22 days.
(§2) After the behavioral experiment was completed, the rats were euthanized under mild anesthesia using cervical dislocation, and their brains were extracted. The homogenates were made in a buffer (pH 7.4) for further analysis. AChE activity, total protein levels, reduced GSH levels, and thiobarbituric acid reactive species (TBARS) levels were measured using the brain homogenates.

For test [4], the system named is brain GSH and TBARS levels. Nature of the test: Brain oxidative stress markers (GSH, TBARS) in STZ-treated rats. It is filed as in vivo, Wistar rats. To be noted: STZ i.c.v. rats; PS10 2, 5, 10 mg/kg p.o.
From the text: Another crucial factor that contributes to the progression of AD is oxidative stress. The brain is more vulnerable to oxidative damage compared to other organs due to its high energy demand, relatively lower level of antioxidant defense mechanisms, and high concentration of polyunsaturated fatty acids. STZ injection generates free radicals that overwhelm the brain’s defensive antioxidant system (GSH) and cause lipid membrane oxidation, leading to the production of malondialdehyde. Thus, in order to analyze the antioxidant property of PS10, the levels of TBARS and GSH were measured in the current investigation (Figure 6).
as §1, §2

Setting [5] is: n = 3, rat cortex homogenate, read-out: AChE Inhibitory Activity (IC50, Mean ± SD).

Like-named read-outs stand apart in the source and are kept apart here.

The term EC50 denotes the concentration needed to bring the measured effect to its halfway point. As usually defined, the IC50 is the concentration at which inhibition is half-maximal.

Consider `O=C1O[C@H]([C@@H](O)CO)C(O)=C1O` [Ascorbic acid, reference compound], for which the concentration for a half-maximal effect (EC50) in test [1] worked out at 21.7 ± 0.08 nM.

Consider `O=C(C=Cc1ccc(OCCN2CCOCC2)cc1)c1ccccc1` [PS7, 3-(4-(2-Morpholinoethoxy)phenyl)-1-phenylprop-2-en-1-one], for which the IC50 in test [2] (setting [5]) is 22.72 ± 0.13 nM; in the test with AGE formation, 51200 ± 800 nM. Besides, the EC50 in test [1] amounted to 37.65 ± 0.24 nM.

Turning to `CN(CCOc1ccc(C=CC(=O)c2ccccc2)cc1)Cc1ccccc1` [PS4, 3-(4-(2-(Benzyl(methyl)amino)ethoxy)phenyl)-1-phenylprop-2-en-1-one], the IC50 in test [2] (setting [5]) was 48.8 ± 0.04 nM; in the test with AGE formation, 69390 ± 200 nM. Besides, the EC50 in test [1] is 49.48 ± 0.21 nM.

`O=C(C=Cc1ccc(OCCN2CCCCC2)cc1)c1ccccc1` [PS5, 1-Phenyl-3-(4-(2-(piperidin-1-yl)ethoxy)phenyl)prop-2-en-1-one]: the IC50 came out at 19.7 ± 0.3 nM in test [2] (setting [5]) and 55300 ± 200 nM with AGE formation. Also, in test [1], the 50% effective concentration (EC50) amounted to 34.4 ± 0.4 nM.

In the case of `O=C(C=Cc1ccc(O)cc1)c1ccccc1` [PS1, 3-(4-Hydroxyphenyl)-1-phenylprop-2-en-1-one], the half-inhibitory concentration (IC50) is 36.5 ± 0.42 nM in test [2] and 43600 ± 80 nM in the test on AGE formation. In addition, the EC50 in test [1] came out at 22.4 ± 0.4 nM.

`O=C(C=Cc1ccc(OCCN2CCCC2)cc1)c1ccccc1` [PS8, 1-Phenyl-3-(4-(2-(pyrrolidin-1-yl)ethoxy)phenyl)prop-2-en-1-one]: the half-maximal inhibitory concentration (IC50) was determined as 32.72 ± 0.12 nM in test [2] (setting [5]) and 65410 ± 360 nM in the test on AGE formation. Besides, the EC50 in test [1] was 48.64 ± 0.18 nM.

For `CCN(CC)CCOc1ccc(C=CC(=O)c2ccccc2)cc1` [PS3, 3-(4-(2-(Diethylamino)ethoxy)phenyl)-1-phenylprop-2-en-1-one], the values for the IC50 (in test [2] (setting [5]); in the test on AGE formation) were 47.5 ± 0.21 nM and 67300 ± 330 nM, respectively. Moreover, the EC50 in test [1] worked out at 49.41 ± 0.22 nM.

On to `N=C(N)NN` [Aminoguanidine (AG), Aminoguanidine, reference compound], for which the IC50 in the test on AGE formation came to 44300 ± 120 nM.

For the compound `O=C(C=Cc1ccc(OCCn2ccnc2)cc1)c1ccccc1` [PS9, 3-(4-(2-(1H-Imidazol-1-yl)ethoxy)phenyl)-1-phenylprop-2-en-1-one], the IC50 in test [2] (setting [5]) was 26.3 ± 0.3 nM; in the test on AGE formation it was 65700 ± 170 nM. In addition, the concentration for a half-maximal effect (EC50) in test [1] is 48.58 ± 0.42 nM.

As to `CN1CCN(CCOc2ccc(C=CC(=O)c3ccccc3)cc2)CC1` [PS10, 3-(4-(2-(p-Methylpiperazin-1-yl)ethoxy)phenyl)-1-phenylprop-2-en-1-one], the IC50 in test [2] (setting [5]) worked out at 15.3 ± 0.72 nM. Further, the IC50 in the test with AGE formation came out at 49850 ± 130 nM. Moreover, the EC50 in test [1] was determined as 22.83 ± 0.2 nM. Besides, in test [3], the “ELT (escape latency time) in MWM” value is “significantly decreased STZ-induced cognitive impairment” and the “TSTQ (time spent in target quadrant) in MWM” value was “significantly decreased STZ-induced cognitive impairment”. Moreover, the “brain AChE activity” value on brain AChE is recorded as “restored”. Besides, in test [4], the “brain GSH level” value is recorded as “reversed” and the “brain TBARS levels” value is reported as “reversed”.

As for `O=C(C=Cc1ccc(OCCN2CCNCC2)cc1)c1ccccc1` [PS6, 1-Phenyl-3-(4-(2-(piperazin-1-yl)ethoxy)phenyl)prop-2-en-1-one], the IC50 in test [2] (setting [5]) is 21.4 ± 0.8 nM; in the test with AGE formation, 64510 ± 200 nM. Besides, in test [1], the concentration giving a half-maximal response (EC50) came out at 46.7 ± 0.24 nM.

With `CN(C)CCOc1ccc(C=CC(=O)c2ccccc2)cc1` [PS2, 3-(4-(2-(Dimethylamino)ethoxy)phenyl)-1-phenylprop-2-en-1-one], the half-inhibitory concentration (IC50) in test [2] (setting [5]) came out at 52.51 ± 0.2 nM; in the test with AGE formation it was 68600 ± 230 nM. Moreover, the EC50 in test [1] amounted to 49.85 ± 0.11 nM.

The values are drawn from PMC10534526 (Molecules, 2023).
